Source: the supplement of paper PMC10307832

What was measured:
Test in all cases: relative viability (nuclei count vs DMSO), 5 days (fraction); higher = more cells survive
NCI-H2085 = test system: NCI-H2085
Summary of the method: (§1)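 Values are medians from duplicate plates. Each reflects relative viability, defined as the nuclei count of treated wells over that of vehicle wells. Lung cancer cell lines in 1536-well plates were pin-tool dosed one day after seeding with one drug alone or with a fixed anchor-drug dose plus five library-drug doses (not always all listed) in √10 steps, then fixed, stained and imaged at 4× after 5 days.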

NCI-H2126 = test system: NCI-H2126
Summary of the method: as §1

NCI-H1993 = test system: NCI-H1993
Summary of the method: as §1

NCI-H2023 = test system: NCI-H2023
Summary of the method: as §1

PC-14 = test system: PC-14
Summary of the method: as §1

NCI-H1650 = test system: NCI-H1650
Summary of the method: as §1

NCI-H358 = test system: NCI-H358
Summary of the method: as §1

BEN = test system: BEN
Summary of the method: as §1

H3255 = test system: H3255
Summary of the method: as §1

NCI-H2347 = test system: NCI-H2347
Summary of the method: as §1

LXF-289 = test system: LXF-289
Summary of the method: as §1

NCI-H647 = test system: NCI-H647
Summary of the method: as §1

NCI-H2009 = test system: NCI-H2009
Summary of the method: as §1

NCI-H1563 = test system: NCI-H1563
Summary of the method: as §1

NCI-H322M = test system: NCI-H322M
Summary of the method: as §1

EMC-BAC-2 = test system: EMC-BAC-2
Summary of the method: as §1

LCLC-97TM1 = test system: LCLC-97TM1
Summary of the method: as §1

NCI-H1915 = test system: NCI-H1915
Summary of the method: as §1

HOP-62 = test system: HOP-62
Summary of the method: as §1

SW 1573 = test system: SW 1573
Summary of the method: as §1

NCI-H727 = test system: NCI-H727
Summary of the method: as §1

SK-LU-1 = test system: SK-LU-1
Summary of the method: as §1

NCI-H661 = test system: NCI-H661
Summary of the method: as §1

Structure (SMILES): C[C@@H]1CN(CC(=O)Nc2ccc3c(c2)Cc2cccc(-c4cc(=O)cc(N5CCOCC5)o4)c2S3)C[C@H](C)O1 + CS(=O)(=O)N1CCN(Cc2cc3nc(-c4cccc5[nH]ncc45)nc(N4CCOCC4)c3s2)CC1 [Pictilisib] (partner 1 µM)
- relative viability (NCI-H2085; first compound 0.04 µM): 0.476
- relative viability (NCI-H2085; first compound 0.1265 µM): 0.484
- relative viability (NCI-H2085; first compound 0.4 µM): 0.425
- relative viability (NCI-H2085; first compound 4 µM): 0.492
- relative viability (NCI-H2126; first compound 0.04 µM): 0.536
- relative viability (NCI-H2126; first compound 0.1265 µM): 0.49
- relative viability (NCI-H2126; first compound 0.4 µM): 0.459
- relative viability (NCI-H2126; first compound 4 µM): 0.487
- relative viability (NCI-H1993; first compound 0.04 µM): 0.76
- relative viability (NCI-H1993; first compound 0.1265 µM): 0.927
- relative viability (NCI-H1993; first compound 0.4 µM): 0.994
- relative viability (NCI-H1993; first compound 4 µM): 0.912
- relative viability (NCI-H2023; first compound 0.04 µM): 0.115
- relative viability (NCI-H2023; first compound 0.1265 µM): 0.262
- relative viability (NCI-H2023; first compound 0.4 µM): 0.197
- relative viability (NCI-H2023; first compound 4 µM): 0.198
- relative viability (PC-14; first compound 0.04 µM): 0.685
- relative viability (PC-14; first compound 0.1265 µM): 0.629
- relative viability (PC-14; first compound 0.4 µM): 0.687
- relative viability (PC-14; first compound 4 µM): 0.588
- relative viability (NCI-H1650; first compound 0.04 µM): 0.32
- relative viability (NCI-H1650; first compound 0.1265 µM): 0.605
- relative viability (NCI-H1650; first compound 0.4 µM): 0.651
- relative viability (NCI-H1650; first compound 4 µM): 0.621
- relative viability (NCI-H358; first compound 0.04 µM): 0.355
- relative viability (NCI-H358; first compound 0.1265 µM): 0.343
- relative viability (NCI-H358; first compound 0.4 µM): 0.3
- relative viability (NCI-H358; first compound 4 µM): 0.247
- relative viability (BEN; first compound 0.04 µM): 0.556
- relative viability (BEN; first compound 0.1265 µM): 0.537
- relative viability (BEN; first compound 0.4 µM): 0.601
- relative viability (BEN; first compound 4 µM): 0.513
- relative viability (H3255; first compound 0.04 µM): 0.483
- relative viability (H3255; first compound 0.1265 µM): 0.535
- relative viability (H3255; first compound 0.4 µM): 0.452
- relative viability (H3255; first compound 4 µM): 0.446
- relative viability (NCI-H2347; first compound 0.04 µM): 0.961
- relative viability (NCI-H2347; first compound 0.1265 µM): 0.577
- relative viability (NCI-H2347; first compound 0.4 µM): 0.747
- relative viability (NCI-H2347; first compound 4 µM): 0.313
- relative viability (LXF-289; first compound 0.04 µM): 0.852
- relative viability (LXF-289; first compound 0.1265 µM): 0.789
- relative viability (LXF-289; first compound 0.4 µM): 0.78
- relative viability (LXF-289; first compound 4 µM): 0.792
- relative viability (NCI-H647; first compound 0.04 µM): 0.258
- relative viability (NCI-H647; first compound 0.1265 µM): 0.397
- relative viability (NCI-H647; first compound 0.4 µM): 0.204
- relative viability (NCI-H647; first compound 4 µM): 0.393
- relative viability (NCI-H2009; first compound 0.04 µM): 0.909
- relative viability (NCI-H2009; first compound 0.1265 µM): 0.84
- relative viability (NCI-H2009; first compound 0.4 µM): 0.816
- relative viability (NCI-H2009; first compound 4 µM): 0.588
- relative viability (NCI-H1563; first compound 0.04 µM): 0.616
- relative viability (NCI-H1563; first compound 0.1265 µM): 0.661
- relative viability (NCI-H1563; first compound 0.4 µM): 0.702
- relative viability (NCI-H1563; first compound 4 µM): 0.711
- relative viability (NCI-H322M; first compound 0.04 µM): 0.365
- relative viability (NCI-H322M; first compound 0.1265 µM): 0.506
- relative viability (NCI-H322M; first compound 0.4 µM): 0.452
- relative viability (NCI-H322M; first compound 4 µM): 0.565
- relative viability (EMC-BAC-2; first compound 0.04 µM): 0.559
- relative viability (EMC-BAC-2; first compound 0.1265 µM): 0.528
- relative viability (EMC-BAC-2; first compound 0.4 µM): 0.429
- relative viability (EMC-BAC-2; first compound 4 µM): 0.514
- relative viability (LCLC-97TM1; first compound 0.1265 µM): 0.191
- relative viability (LCLC-97TM1; first compound 0.4 µM): 0.144
- relative viability (LCLC-97TM1; first compound 4 µM): 0.18
- relative viability (NCI-H1915; first compound 0.04 µM): 0.888
- relative viability (NCI-H1915; first compound 0.1265 µM): 0.961
- relative viability (NCI-H1915; first compound 0.4 µM): 0.97
- relative viability (NCI-H1915; first compound 4 µM): 0.774
- relative viability (HOP-62; first compound 0.04 µM): 0.359
- relative viability (HOP-62; first compound 0.1265 µM): 0.626
- relative viability (HOP-62; first compound 0.4 µM): 0.753
- relative viability (HOP-62; first compound 4 µM): 0.605
- relative viability (SW 1573; first compound 0.04 µM): 0.536
- relative viability (SW 1573; first compound 0.1265 µM): 0.531
- relative viability (SW 1573; first compound 0.4 µM): 0.489
- relative viability (SW 1573; first compound 4 µM): 0.486
- relative viability (NCI-H727; first compound 0.04 µM): 0.291
- relative viability (NCI-H727; first compound 0.1265 µM): 0.421
- relative viability (NCI-H727; first compound 0.4 µM): 0.252
- relative viability (NCI-H727; first compound 4 µM): 0.385
- relative viability (SK-LU-1; first compound 0.04 µM): 0.657
- relative viability (SK-LU-1; first compound 0.1265 µM): 0.594
- relative viability (SK-LU-1; first compound 0.4 µM): 0.702
- relative viability (SK-LU-1; first compound 4 µM): 0.484
- relative viability (NCI-H661; first compound 0.04 µM): 0.408
- relative viability (NCI-H661; first compound 0.1265 µM): 0.381
- relative viability (NCI-H661; first compound 0.4 µM): 0.381
- relative viability (NCI-H661; first compound 4 µM): 0.448
